How the values were obtained:
Assay type in all cases: cell-based
MLLT1 [1] = biological target: T1, MLLT1 (Homo sapiens, UniProt Q03111); assay: MLLT1 degradation assay in MV4-11 cells (JESS, 24 h); set-up: endogenous in cells; host or cells: MV4-11 (ATCC CRL-9591); conditions: vs DMSO control
T1 sequence (Q03111 1-559): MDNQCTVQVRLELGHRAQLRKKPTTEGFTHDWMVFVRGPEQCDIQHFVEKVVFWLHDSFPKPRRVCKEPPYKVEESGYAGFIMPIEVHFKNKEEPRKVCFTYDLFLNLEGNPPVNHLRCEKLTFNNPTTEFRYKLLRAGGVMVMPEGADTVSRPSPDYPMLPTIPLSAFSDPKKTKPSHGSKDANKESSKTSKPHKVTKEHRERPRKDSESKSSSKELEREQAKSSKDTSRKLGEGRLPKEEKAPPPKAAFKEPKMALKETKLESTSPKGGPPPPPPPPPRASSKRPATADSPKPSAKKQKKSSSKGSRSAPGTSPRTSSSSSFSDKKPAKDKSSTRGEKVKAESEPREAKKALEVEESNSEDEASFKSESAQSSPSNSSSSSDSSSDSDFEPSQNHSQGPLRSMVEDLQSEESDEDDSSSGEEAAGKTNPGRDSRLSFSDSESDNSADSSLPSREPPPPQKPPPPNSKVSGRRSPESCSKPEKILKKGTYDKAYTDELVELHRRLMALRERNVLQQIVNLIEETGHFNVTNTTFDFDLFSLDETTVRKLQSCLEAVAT
In short: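 MV4-11 cells treated at 1000, 100 and 10 nM (0.1% DMSO) for 24 h at 37° C; lysates (4 ug protein) run on JESS capillary immunoassay with MLLT1 and GAPDH antibodies. Peak areas give % degradation versus DMSO, binned A (≥75%) to D (<25%).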

MLLT1 [2] = biological target: T1, MLLT1; assay: MLLT1 DC50 and Dmax determination in MV4-11 cells (JESS, 4 h); set-up: endogenous in cells; host or cells: MV4-11 (ATCC CRL-9591); conditions: MLLT1 degradation
Procedure: MLLT1 degradation efficacy of compounds was tested in an automated chemiluminescent detection system (JESS, Cat #004-650). MV4-11 (#CRL-9591, ATCC) were seeded at a density of 1.2 million cells/well in a non-treated 6-well cell culture plate in 2.4 mL of complete medium (IMDM+10% FBS+1× Penicillin-Streptomycin). 10 mM DMSO stocks were prepared, and cells were treated with eight concentrations of test compounds, starting from 100 nM, 5-fold dilution, at a final DMSO concentration of 0.1% and incubated for 4 h at 37° C., 5% CO2. Post incubation, cells were centrifuged, washed with HBSS and lysed in 60 μL of RIPA buffer supplemented with Protease inhibitors (sc-24948; Santa Cruz). Protein estimation was done using BCA protein assay kit (23228; Pierce). 4 gg protein lysate (4 μL of 1 μg/μL lysate) was loaded into each well of the JESS cartridge (SM-W004; Bio-techne) and the JESS run was performed using 1:900 dilution of anti-human MLLT1 antibody (ABE2596; Merck) and 1:1200 dilution of anti-human GAPDH antibody (2118; Cell signaling technology) with anti-rabbit secondary detection module (DM-001; Bio-Techne). Post run, data was analysed using “Compass for SW” software for chemiluminescent detection. Peak fit was done using “dropped lines” method. Peak area for MLLT1 and GAPDH was used for the calculation of MLLT1 degradation with respect to DMSO control. Data was shown as “% degradation”. % Degradation was plotted against the respective doses (test compound concentration) and dose-response curve (DRC) was generated using four-parameter logistic equation (non-linear regression). Following parameters for each DRC was captured: DC50 (concentration in nM at which degradation is 50%, interpolated from standard curve and transformed to linear scale), Dmax (maximum % degradation observed). DC50 and Dmax data are captured in Table 7 for Example 1 and Example 110, which is a comparative example.

MV4-11 cells = assay: MV4-11 cellular proliferative assay, Assay Format A (CellTiter-Glo, 120 h); conditions: Homo sapiens, Assay format A, 120 h, read-out: IC50 (MV4-11 cellular proliferative assay)
In short: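 MV4-11 cells seeded at 50 cells/well and exposed for 120 h to compound (10 semi-log dilutions, top 30 μM) or DMSO. Viability by CellTiter-Glo luminescence, normalised to DMSO and reference-compound wells; AC50 from Hill fit.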

Compound: Cc1nn(CCCCCCCC#Cc2cccc3c2CN(C2CCC(=O)NC2=O)C3=O)c2cc(C(=O)Nc3cc4[nH]c([C@H]5CCCN5C)cc4cn3)ccc12 (mixture of isomers) [Example 1, 1-(9-(2-(2,6-dioxopiperidin-3-yl)-1-oxoisoindolin-4-yl)non-8-yn-1-yl)-3-methyl-N-(2-((R)-1-methylpyrrolidin-2-yl)-1H-pyrrolo[3,2-c]pyridin-6-yl)-1H-indazole-6-carboxamide]
- MLLT1% Degradation @ 0.01 μM (MLLT1 [1]; 0.01 μM): A (Category A: A≥75% degradation)
- MLLT1% Degradation @ 0.1 μM (MLLT1 [1]; 0.1 μM): A (Category A: A≥75% degradation)
- MLLT1% Degradation @ 1 μM (MLLT1 [1]; 1 μM): A (Category A: A≥75% degradation)
- DC50 (MLLT1 [2]): 0.5 nM
- Dmax (MLLT1 [2]; maximum % degradation observed): 87%
- IC50 (MV4-11 cells): < 100 nM
